# Laboratory results: patent US20260232753A1, “COMPOSITION FOR TREATING MACULAR DEGENERATION COMPRISING NOVEL PEPTIDE” (EYEBIOKOREA, INC., priority 2021, published 2026)
# *1 amine or outer side, *2 acyl side, *3 side chain or, on linkers, in order; H or OH if unused. Where no end group is shown, it is not given here. [ ]: non-standard residue; d: D form. The star is where a group is joined. Pro(trans-4-NH2) = O=C([C@@H]1C[C@@H](N[*:3])CN1[*:1])[*:2]; Pro(4-methylene) = C=C1CN[C@H](C(=O)O)C1; Pro(cis-4-F) = O=C(O)[C@@H]1C[C@H](F)CN1; Pro(4,4-F2) = O=C(O)[C@@H]1CC(F)(F)CN1; Pro(4,4-Me2) = CC1(C)CN[C@H](C(=O)O)C1; Hyp = O=C(O)[C@@H]1C[C@@H](O)CN1; dHyp = O=C(O)[C@H]1C[C@H](O)CN1; Phg = N[C@H](C(=O)O)c1ccccc1; OiPr = CC(C)O*
# Key:
# [1] = tested on: choroidal neovascularization (CNV); assay: Inhibition of choroidal neovascularization: fluorescence value (CTF) at the CNV site by FFA, laser-induced CNV model, intravitreal injection; format: in vivo, C57BL/6 mice; settings: ten days after administration; for CTF (corrected total fluorescence) value: laser-induced CNV, 1 μL intravitreal, peptide 10 mg/mL or aflibercept 20 mg/mL, lower CTF = less CNV; for CNV inhibitory efficacy from fluorescence value of the CNV site (in words): intravitreal
# Description: (§1) The CNV animal model used in the present invention is a mouse model in which lesions are induced by irradiating a laser to the choroid of C57BL/6 mice using a laser slit system. The laser-induced CNV model, first described in 1979, uses photocoagulation to disturb Bruch's membrane to induce the growth of choroidal neovascularization into the retina area, and it is similar in development to neovascular disease in the human retina, that is, wet macular degeneration (wet AMD), in that neovascularity arises from the choroid. In addition, the laser-induced CNV model was successful in predicting the clinical efficacy of anti-vascular endothelial growth factor (VEGF) treatment for neovascular AMD, and is an animal model used in the development stage of existing therapeutic agents (Gong Y, Li J, Sun Y, Fu Z, Liu C H, Evans L, et al. (2015) Optimization of an Image-Guided Laser-Induced Choroidal Neovascularization Model in Mice. PLOS ONE 10 (7)).
# (§2) In order to evaluate the efficacy of the peptide of the present invention to inhibit the choroidal neovascularization (CNV), an experiment was performed as follows.
# (§3) The eyes of 7-8 week old C57BL/6 mice were instilled with a mydriatic agent to dilate the pupils, and the mice were anesthetized by intraperitoneal injection of ketamine (50 mg/kg) and rompun (23.32 mg/kg). A slit-lamp laser injection system was used to irradiate the laser to the choroid of each eye of the mouse four times in the 12 o'clock, 3 o'clock, 6 o'clock, and 9 o'clock directions. At this time, the laser irradiation conditions were 532 nm, 80 msec, and 240 mW. Immediately after laser irradiation, 1 μL of each peptide at a concentration of 10 mg/mL or aflibercept at a concentration of 20 mg/mL, which was dissolved in PBS, was injected into the vitreous body using a syringe. Ten days after drug administration, the mice were anesthetized, and 2% fluorescein was administered to the abdominal cavity to stain blood vessels. The retina was photographed 2 to 3 minutes after fluorescein administration. The size and fluorescence value of CNV lesions induced by laser were measured using the ImageJ program, and in order to reduce the differences between subjects, the CTF (corrected total fluorescence) was calculated by removing the background, and the values of each group were compared. The results of all tests are expressed as mean±standard deviation, and significance was verified using one-way ANOVA and Kruskal-wallis test.
# [2] = tested on: choroidal neovascularization (CNV); assay: Inhibition of choroidal neovascularization: optical coherence tomography, size of CNV lesion, intravitreal injection; format: in vivo, C57BL/6 mice; settings: laser-induced CNV; 1 μL intravitreal, peptide 10 mg/mL or aflibercept 20 mg/mL; ten days after administration; OCT
# Description: as §1, §2
# as §3, with “and” for “and 2% fluorescein was administered to”, “the” for “the abdominal cavity to stain blood vessels. The retina was photographed 2 to 3 minutes after fluorescein administration. The size and fluorescence value of”, “calculated and expressed as μm^2” for “measured”, “program” for “program, and in order to reduce the differences between subjects, the CTF (corrected total fluorescence) was calculated”, “transmitting an OCT beam for” for “removing the background, and the values of”, “burn.” for “group were compared.”
# [3] = Stability of the peptide: content analysis by HPLC in aqueous solution under harsh conditions; format: physicochemical
# Protocol: In order to evaluate the stability of the peptide of the present invention, an experiment was performed as follows.
# The stability of the peptide was confirmed through content analysis in an aqueous solution at 40° C., 75% humidity, and harsh conditions, and was analyzed using HPLC under the following conditions. • Analysis column: C18 (4.6 Y 250 mm, 5 μm, YMC Hydrosphere) • Analysis wavelength: ultraviolet absorption spectrophotometer (210 nm) • Injection volume/Flow rate: 10 μL/0.8 mL/min • Column temperature: 45° C. • Mobile phase: 0.1 M phosphate buffer methanol mixture (83:17)
Substance,CTF (corrected total fluorescence) value [1],further results
"4,4-difluoro-Pro-Gly-Gln-Asp-Gly ([Pro(4,4-F2)]GQDG) [Example 24]","+ (+: 300,000 to 800,000)",
"4,4-difluoro-Pro-Gly-Gln-Asp-Gly-Leu ([Pro(4,4-F2)]GQDGL) [Example 29]","+ (+: 300,000 to 800,000)",
"4,4-dimethyl Pro-Gly-Gln-Asp-Gly ([Pro(4,4-Me2)]GQDG) [Example 26]","+ (+: 300,000 to 800,000)",
"4,4-dimethyl Pro-Gly-Gln-Asp-Gly-Leu ([Pro(4,4-Me2)]GQDGL) [Example 31]","+ (+: 300,000 to 800,000)",
"4,4-dimethyl Pro-Gly-Gln-Asp-Gly-Leu-Ala ([Pro(4,4-Me2)]GQDGLA; also: X1: 4,4-dimethyl-Pro (name) or 4-methylene-L-proline) [Example 35]","+ (+: 300,000 to 800,000)",
4-methylene-Pro-Gly-Gln-Asp-Gly ([Pro(4-methylene)]GQDG) [Example 25],"+ (+: 300,000 to 800,000)",
4-methylene-Pro-Gly-Gln-Asp-Gly-Leu ([Pro(4-methylene)]GQDGL) [Example 30],"+ (+: 300,000 to 800,000)",
4-methylene-Pro-Gly-Gln-Asp-Gly-Leu-Ala ([Pro(4-methylene)]GQDGLA) [Example 34],"+ (+: 300,000 to 800,000)","Size of lesion [2]: 8,603 μm^2"
D-Hyp-Gly-Gln-Asp-Gly-Leu ([dHyp]GQDGL) [Example 13],"++ (++: 200,000 to 300,000)","Size of lesion [2]: 6,395 μm^2; CNV inhibitory efficacy from fluorescence value of the CNV site (in words) [1]: very excellent inhibitory efficacy"
D-Hyp-Gly-Gln-Asp-Gly-Leu-Ala ([dHyp]GQDGLA) [Example 32],"+ (+: 300,000 to 800,000)",
Hyp-Gly-Gln-Asp-Ala ([Hyp]GQDA) [Example 3],"+ (+: 300,000 to 800,000)","Size of lesion [2]: 6,491 μm^2"
Hyp-Gly-Gln-Asp-Ala-Leu ([Hyp]GQDAL) [Example 9],"++ (++: 200,000 to 300,000)",CNV inhibitory efficacy from fluorescence value of the CNV site (in words) [1]: very excellent inhibitory efficacy
Hyp-Gly-Gln-Asp-Ala-Leu-Ala ([Hyp]GQDALA) [Example 16],"+ (+: 300,000 to 800,000)",
Hyp-Gly-Gln-Asp-Gly-D-Leu ([Hyp]GQDG[dL]) [Example 12],"+ (+: 300,000 to 800,000)",
Hyp-Gly-Gln-Asp-Gly-D-Leu-Ala ([Hyp]GQDG[dL]A) [Example 20],"+ (+: 300,000 to 800,000)",
Hyp-Gly-Gln-Asp-Gly-Leu-Ala-IPE ([Hyp]GQDGLA-OiPr) [Example 17],"++ (++: 200,000 to 300,000)","Size of lesion [2]: 5,978 μm^2; CNV inhibitory efficacy from fluorescence value of the CNV site (in words) [1]: very excellent inhibitory efficacy"
Hyp-Gly-Gln-Asp-Gly-Leu-D-Ala ([Hyp]GQDGL[dA]) [Example 21],"+ (+: 300,000 to 800,000)",
Hyp-Gly-Gln-Asp-Leu ([Hyp]GQDL) [Example 2],"+ (+: 300,000 to 800,000)",
Hyp-Gly-Gln-Asp-Leu-Leu ([Hyp]GQDLL) [Example 8],"++ (++: 200,000 to 300,000)",CNV inhibitory efficacy from fluorescence value of the CNV site (in words) [1]: very excellent inhibitory efficacy
Hyp-Gly-Gln-Asp-Leu-Leu-Ala ([Hyp]GQDLLA) [Example 15],"++ (++: 200,000 to 300,000)","Size of lesion [2]: 6,672 μm^2; CNV inhibitory efficacy from fluorescence value of the CNV site (in words) [1]: very excellent inhibitory efficacy"

Substance,CTF (corrected total fluorescence) value [1],further results
Hyp-Gly-Gln-Asp-Val ([Hyp]GQDV) [Example 1],"+++ (+++: 100,000 to 200,000)","Size of lesion [2]: 5,636 μm^2; CNV inhibitory efficacy from fluorescence value of the CNV site (in words) [1]: very excellent inhibitory efficacy"
Hyp-Gly-Gln-Asp-Val-Leu ([Hyp]GQDVL) [Example 7],"++ (++: 200,000 to 300,000)","Size of lesion [2]: 6,046 μm^2; CNV inhibitory efficacy from fluorescence value of the CNV site (in words) [1]: very excellent inhibitory efficacy"
Hyp-Gly-Gln-Asp-Val-Leu-Ala ([Hyp]GQDVLA) [Example 14],"++ (++: 200,000 to 300,000)","Size of lesion [2]: 5,407 μm^2; CNV inhibitory efficacy from fluorescence value of the CNV site (in words) [1]: very excellent inhibitory efficacy"
Hyp-Gly-Gln-D-Asp-Gly-Leu ([Hyp]GQ[dD]GL) [Example 11],"+ (+: 300,000 to 800,000)",
Hyp-Gly-Gln-Glu-Gly ([Hyp]GQEG) [Example 36],"+ (+: 300,000 to 800,000)",
Hyp-Gly-Gln-Glu-Leu-Leu ([Hyp]GQELL) [Example 38],"+ (+: 300,000 to 800,000)",
Hyp-Gly-Gln-Glu-Val-Leu ([Hyp]GQEVL) [Example 39],"+ (+: 300,000 to 800,000)",
Hyp-Gly-Gln-Glu-phenyl-Gly-Leu-Ala ([Hyp]GQE[Phg]LA) [Example 45],"+ (+: 300,000 to 800,000)","Content after 7 days ([3]; 40° C., 75% humidity, 7 days): 98.147%; Decrease rate ([3]; 40° C., 75% humidity, after 7 days): 0.439%; Initial content ([3]; HPLC, initial): 98.586%"
[Hyp]GQ[dD]G [Example 5],"+ (+: 300,000 to 800,000)",
[Hyp]GQ[dD]GLA [Example 19],"+ (+: 300,000 to 800,000)",
[Hyp]G[dQ]DG [Example 4],"+ (+: 300,000 to 800,000)",
[Hyp]G[dQ]DGL [Example 10],"+ (+: 300,000 to 800,000)",
[Hyp]G[dQ]DGLA [Example 18],"+ (+: 300,000 to 800,000)",
[dHyp]GQDG [Example 6],"+ (+: 300,000 to 800,000)",
cis-4F-Pro-Gly-Gln-Asp-Gly ([Pro(cis-4-F)]GQDG) [Example 22],"+ (+: 300,000 to 800,000)",
cis-4F-Pro-Gly-Gln-Asp-Gly-Leu ([Pro(cis-4-F)]GQDGL) [Example 27],"+++ (+++: 100,000 to 200,000)",CNV inhibitory efficacy from fluorescence value of the CNV site (in words) [1]: very excellent inhibitory efficacy
cis-4F-Pro-Gly-Gln-Asp-Gly-Leu-Ala ([Pro(cis-4-F)]GQDGLA) [Example 33],"+ (+: 300,000 to 800,000)",
trans-4NH2-Pro-Gly-Gln-Asp-Gly ([Pro(trans-4-NH2)]GQDG) [Example 23],"++ (++: 200,000 to 300,000)",CNV inhibitory efficacy from fluorescence value of the CNV site (in words) [1]: very excellent inhibitory efficacy
trans-4NH2-Pro-Gly-Gln-Asp-Gly-Leu ([Pro(trans-4-NH2)]GQDGL) [Example 28],"+ (+: 300,000 to 800,000)",
